Experimental findings from PubChem BioAssay AID2253 (Southern Research Specialized Biocontainment Screening …, 2010) are described below.

The test concerns THP-1 viability, CellTiter-Glo luminescence, 72 h. The experiment in a line: human monocytic cell viability reduction – S. typhimurium screen hits, cytotoxicity control for Salmonella PhoP regulon inhibitors, dose response (AID 2253).

Values joined by “and” are separate entries in the source; they are usually repeats but may differ in a detail not shown here. Equal values may be shown once.

Take `Cc1cc(C)cc(CC(Cc2nc3ccccc3[nH]2)c2nc3ccccc3[nH]2)c1` (stereo unspecified): the half-maximal effective concentration (EC50) is 11.8 µM. The same measure for `O=[N+]([O-])c1cc(/C=N/Nc2nc3ccccc3[nH]2)c(O)cc1O`: 1.21 µM; for `COc1cccc(C(=O)Oc2c(CN3CCOCC3)cc(Cl)c3cccnc23)c1`: 7.11 µM.

As for `N#Cc1c(NC(=O)c2cnccn2)sc2c1CCCC2`, the EC50 is 9.25 µM.

As for `Oc1c(C(Nc2nc3ccccc3s2)c2ccco2)ccc2cccnc12` (stereo unspecified), the concentration for a half-maximal effect (EC50) is 0.65 µM.

As for `CN(O)/C=c1/ccc2c(n1)C(=O)C=CC=2`, the EC50 is 23.3 µM. As for `Cc1cccc(NC(=S)NC(NC(=O)c2ccco2)C(Cl)(Cl)Cl)c1` (stereo unspecified), the EC50 is 21.7 µM. For `Cc1nnc(N/N=C/c2ccccn2)[nH]c1=O`, the concentration giving a half-maximal response (EC50) was 0.81 µM. The same measure for `CCC(C)(C)c1ccc(OCCCC[n+]2ccc(C)cc2)c(C(C)(C)CC)c1`: 1.48 µM; for `O=C(C[n+]1cc(-c2ccc(Cl)c(Cl)c2)n2c1CCC2)N1c2ccccc2Sc2ccccc21`: 17.8 µM; for `CCCNC1=C(C)C(=O)C2=C(C1=O)C(COC(N)=O)[C@]1(OC)C3NC3CN21` (stereo partly specified): 10.1 µM. Consider `Oc1ccccc1Nc1nc(NCc2ccco2)c2ccccc2n1`, for which the EC50 was 13.2 µM.

Regarding `O=C(NCCNc1ccc([N+](=O)[O-])cc1C(F)(F)F)c1ccc(F)cc1`, the EC50 was 43.7 µM. In the case of `O=C(Nc1cccc(N=Cc2cc(Br)cc(Br)c2O)c1)c1ccco1` it was 38.5 µM; in that of `CCOC(=O)N1CCN(S(=O)(=O)c2ccc(C(=O)NNc3nc4c(C)cc(C)cc4s3)cc2)CC1`, 3.28 µM. Turning to `COc1ccc(C(=O)N/N=C/c2sc3ccccc3c2O)cc1`, the EC50 was 3.13 µM.

Regarding `CC1CCC(C(C)C)C(OC(=O)Cn2c(COc3ccccc3)[n+](C)c3ccccc32)C1` (stereo unspecified), the EC50 is 2.6 µM. As to `CC1N(C)c2cc(NC(=O)c3ccco3)ccc2C1(C)C` (stereo unspecified), the EC50 was 7.51 µM.

With `COc1ccc(/C=C2\CN(Cc3ccccc3)C/C(=C\c3ccc(OC)cc3)C2=O)cc1`, the EC50 is 12.7 µM. For `Nc1c(C(=O)NCCc2ccc(Cl)cc2)sc2ccc(S(=O)(=O)N3CCCCC3)cc12`, the EC50 is 31.5 µM. The same measure for `CSc1ccc(C(=O)/C=C/c2ccc(N)cc2)cc1`: 21.7 µM; for `Oc1ccc(N2CCN(Cc3ccc(OCCCN4CCCCC4)cc3)CC2)cc1`: 29.5 µM.

In the case of `CCCCCCCCCCCCCCCC[n+]1ccc(/C=N/O)cc1`, the EC50 was 0.37 µM. Take `Clc1ccc(Cl)c(OCCCCNCc2ccccc2)c1`: the EC50 is 27.4 µM.

In the case of `S=C(NCc1ccncc1)Nc1ccc(Cl)c(Cl)c1`, the EC50 was 46.2 µM. The same measure for `Cc1ccc(C=Nc2ccccc2C(N)=O)cc1`: 8.83 µM; for `COc1ccc(/C=C/c2nc3ccccc3n2Cc2ccccc2OC)cc1`: 13.2 µM; for `CC[C@@H](C)[C@H](CNC)NC[C@@H](Cc1cccc2ccccc12)NCCc1cccc(C(F)(F)F)c1`: 7 µM. Turning to `O=C(Nc1ccc(Br)cc1)c1ccc(F)c(S(=O)(=O)NCc2cccs2)c1`, the EC50 is 21.7 µM. In the case of `O=C(O)CSc1cc(NS(=O)(=O)c2cccc([N+](=O)[O-])c2)c2ccccc2c1O` it was 8.07 µM; in that of `O=S1(=O)N=C(N/N=C/c2ccccn2)c2ccccc21`, 22.9 µM; in that of `CCn1c(SCC(=O)Nc2ccc3c(c2)oc2ccccc23)nnc1-c1ccc(N)cc1`, 29.9 µM. The same measure for `NC(N)=N/N=C/c1ccc(OCc2ccc(Cl)cc2)cc1`: 2.91 µM. In the case of `O=C(/C=C/c1ccccc1Cl)c1ccccc(=O)c1O` it was 12.6 µM. With `COc1ccc(C(C[N+](=O)[O-])c2c(-c3ccccc3)cc3ccccn23)cc1` (stereo unspecified), the EC50 is 12.8 µM. The same measure for `Oc1ccccc1NCC(O)Cn1ccc2ccccc21` (stereo unspecified): 28 µM; for `OCCCNc1nc(-c2ccc(Cl)cc2)nnc1-c1ccc(Br)cc1`: 19.8 µM. As to `CC(C)COc1ccc(Cc2cnc(N)nc2N)cc1`, the EC50 was 36.9 µM.

Take `O=C(N/N=C/c1cc2c3c(c1O)CCCN3CCC2)c1ccccc1O`: the EC50 was 3.56 µM. Regarding `Cc1ccc2c(c1)[nH]c1c(N3CCN(Cc4ccccc4)CC3)ncnc12`, the EC50 is 18.9 µM.

Turning to `Nc1cccc2nc3ccccc3cc12`, the concentration for a half-maximal effect (EC50) was 4.25 µM. As to `N=c1c2c(n(Cc3ccc(Br)cc3)c3c1CCC3)CCCC2`, the EC50 was 3.88 µM. The same measure for `O=[N+]([O-])c1ccc(Sc2nc3ccccc3o2)c([N+](=O)[O-])c1`: 1.94 µM.

For the compound `CN(C)C=NC(=O)c1[nH]c2ccc(Cl)cc2c1-c1ccccc1`, the EC50 was 13.6 µM. The same measure for `OCCN1CCN(Cc2cc(Cl)c3cccnc3c2O)CC1`: 12 µM; for `O=C(N/N=C/c1cc(O)ccc1Br)c1cccnc1`: 2.25 µM; for `CC(C)C(=O)NC(c1cccc([N+](=O)[O-])c1)c1ccc2cccnc2c1O` (stereo unspecified): 0.51 µM.

On to `c1ccc(Nc2cc(Nc3ccccc3)[nH]n2)cc1`, for which the EC50 was 23.7 µM. The same measure for `Oc1ccc(Br)cc1-c1nc2cnccn2c1NC1CCCCC1`: 46.4 µM; for `O=C(NNC(=O)c1cnccn1)c1ccc(Cl)cc1`: 24.5 µM; for `CCCOc1ccc(Br)cc1CSC(=N)N`: 5.31 µM. For the compound `COc1ccc(Nc2nnc(SCc3cn4c(C)cccc4n3)s2)cc1`, the EC50 is 9.34 µM.

`CCc1nn2cc(C(=O)c3cc(Cl)ccc3O)cnc2c1-c1ccc(F)cc1`: the EC50 was 38.3 µM. The same measure for `CC(C(=O)c1ccc(-c2ccccc2)cc1)[n+]1cccc(NC(=O)c2ccccc2)c1` (stereo unspecified): 19.6 µM; for `CC(=O)NC(c1ccc(Cl)cc1Cl)c1ccc2cccnc2c1O` (stereo unspecified): 0.28 µM; for `COc1ccc(/C=N/Nc2cc(C)nc3ccccc23)cc1`: 7.59 µM. Take `CCCCCCCCCCOC(=O)Cn1c(COc2ccc(OC)cc2)[n+](C)c2ccccc21`: the EC50 was 3.17 µM and 2.22 µM.

As to `CCCn1c(NCc2c[nH]c3ccccc23)nc2ccccc21`, the EC50 was 22.9 µM.

On to `CCCCCCOC(=O)C[N+](C)(C)CCOC1CC2CCC1(C)C2(C)C` (stereo unspecified), for which the EC50 is 2.8 µM. Regarding `Cc1[nH]c2ccccc2c1/C=N/Nc1ccc(F)cc1F`, the EC50 is 48.5 µM. In the case of `Cc1[nH]c2ccccc2c1C(O)CN1CCN(c2cccc(C(F)(F)F)c2)CC1` (stereo unspecified), the 50% effective concentration (EC50) is 9.39 µM. The same measure for `Cc1ccc(Nc2nc(Cl)nc(N(C)C#N)n2)cc1`: 13.6 µM; for `CN1c2ccccc2C(C)(C)[C@]12C=Cc1cc(O)ccc1O2`: 15.4 µM. Consider `CC(C)[C@@H]1CC[C@@H](C)C[C@H]1OC(=O)C[n+]1cc(-c2ccc(Cl)cc2)n2c1CCCCC2`, for which the half-maximal effective concentration (EC50) was 2.3 µM. In the case of `COc1ccc(Nc2nc(-c3c[nH]c4ccccc34)cs2)cc1` it was 15.6 µM. In the case of `CC[C@H]1OC(=O)C[C@@H](O)[C@H](C)[C@@H](O[C@@H]2O[C@H](C)C[C@H](N(C)C)[C@H]2O)[C@@H](CC=O)C[C@@H](C)C(=O)C=C[C@]2(C)O[C@H]2[C@@H]1C` it was 11.9 µM. The same measure for `CCOc1ccc(/C=C/C(=O)Nc2ccc(OC)cc2[N+](=O)[O-])cc1`: 27.5 µM. For the compound `CCc1ccc(S(=O)(=O)/N=C2/C=C(Sc3ncn[nH]3)C(=O)c3ccccc32)cc1`, the EC50 was 4.28 µM.

In the case of `CCC(C)(C)c1ccc(OCCCC[n+]2ccccc2)c(C(C)(C)CC)c1`, the EC50 was 1.2 µM. Regarding `O=C(c1cccs1)c1no[n+]([O-])c1C(=O)c1cccs1`, the EC50 was 2.61 µM.

For `Oc1cccc(Nc2c3ccccc3nc3ccccc23)c1`, the concentration for a half-maximal effect (EC50) is 12 µM.
